Data taken from US8987277B2, “Fungicide” (priority 2010, dated 2015).
In brackets after ≈: the same amount, converted by molar mass.

Experiments:
C. albicans = assay: Minimum inhibiting concentration towards unicellular fungi, serial dilution; format: cell-based; conditions: Sabouraud's agar
Protocol: (§1) Discovering the Minimum Inhibiting Concentration of the Inventive Substance (Forms A and B) Towards Unicellular Fungi
(§2) Fungi were grown in Sabouraud's agar. The effect of the substance was assessed by means of the serial dilution method.

C. glabrata = assay: as above; format: cell-based; conditions: Sabouraud's agar
Protocol: as §1, §2

C. krusei = assay: as above; format: cell-based; conditions: Sabouraud's agar
Protocol: as §1, §2

C. parapsilosis = assay: as above; format: cell-based; conditions: Sabouraud's agar
Protocol: as §1, §2

S. cerevisiae = assay: as above; format: cell-based; conditions: Sabouraud's agar
Protocol: as §1, §2

Aspergillus = assay: Minimum inhibiting concentration towards multicellular fungi; format: cell-based
Description: (§3) Discovering the Minimum Inhibiting Concentration of the Inventive Agent Towards Multicellular Fungi

Mucor = assay: as above; format: cell-based
Description: as §3

A. alternata = assay: Biocidal effect on spores of fungi that cause plant diseases and damage agricultural products; format: cell-based, Alternaria alternata; conditions: fungi spores (a mixture)
Protocol: (§4) Various fungi were used in the experiment—vegetative forms and spores of Alternaria alternata, Fusarium moniliforme, Botrytis spp. that cause diseases of plants and damage agricultural products. Biocidal properties were tested on spores of fungi cultures with optical density of the inoculated dose p E=0.310.

F. moniliforme = assay: as above; format: cell-based, Fusarium moniliforme; conditions: fungi spores (a mixture)
Protocol: as §4

Botrytis spp = assay: as above; format: cell-based; conditions: fungi spores (a mixture)
Protocol: as §4

Aspergillis niger = assay: Biocidal effect on spores of fungi that damage paper, wood and dyes; format: cell-based; conditions: fungi spores (a mixture)
Protocol: (§5) Various fungi were used in the experiment—vegetative forms and spores of Aspergillis niger, Penicillium ochro-chloron that damage paper, wood and dyes thereof.
(§6) Biocidal properties were tested on spores of fungi cultures with optical density of the inoculated dose p E=0.310.

[1] = test system: Penicillium ochro-chloron; assay: as above; format: cell-based; conditions: fungi spores (a mixture)
Protocol: as §5, §6

[2] = test system: Candida albicans strain 15; assay: Assessment of the fungicide effect, serial dilutions in microplates with neutralizer; format: cell-based; conditions: for Concentration that destroys the fungi (fungicide effect): Candida genus, exposure time 24 h
Protocol: (§7) Strains of fungi of Candida genus (Candida albicans strain 15) that are resistant towards disinfecting agents and trichophyton (Trichophiton gypseum), which were cultivated in Sabouraud's agar, were used as test microorganisms.
(§8) Forms A and B were dissolved in sterile distilled water.
(§9) The method of serial dilutions in microplates was used in the experiment. The dissolved substance was titrated in the culture medium, then the test microorganisms were introduced and after certain intervals of disinfection time the neutralizer was added, namely 0.1% solution of citric acid. After the exposure during 1-2 minutes the contents of each well were plated to solid culture media.
(§10) The following concentrations of the substance were studied: 0.1-0.05-0.025-0.0125% of the drug for action duration of 1, 3, 5, 10, 20, minutes and 1.0-1.5-3.0 and 24 h.
(§11) All inoculations were incubated at an optimum temperature during 24 hours.
(§12) The fungicide effect was assessed according to the presence or absence of growing microorganisms in the culture media.

Trichophiton gypseum = assay: as above; format: cell-based; conditions: for Concentration that destroys the fungi (fungicide effect): trichophyton genus, exposure time 24 h
Protocol: as §7, §8, §9, §10, §11, §12

[3] = read-out: Minimum inhibiting (biocidal) concentration (MIC) of the substance

Row | Compound | Minimum inhibiting concentration (C. albicans) | Minimum inhibiting concentration (C. glabrata) | Minimum inhibiting concentration (C. krusei) | Minimum inhibiting concentration (C. parapsilosis) | Minimum inhibiting concentration (S. cerevisiae) | Minimum inhibiting concentration (MIC) (Aspergillus) | Minimum inhibiting concentration (MIC) (Mucor) | Minimum inhibiting (biocidal) concentration of the substance (A. alternata) | Minimum inhibiting (biocidal) concentration of the substance (F. moniliforme) | Minimum inhibiting (biocidal) concentration of the substance (Botrytis spp) | Minimum inhibiting (biocidal) concentration (MIC) of the substance (Aspergillis niger) | Minimum inhibiting (biocidal) concentration (MIC) of the substance [1] | Concentration that destroys the fungi (fungicide effect) [2] | Concentration that destroys the fungi (fungicide effect) (Trichophiton gypseum) | other results
1 | 2,4-dioxo-5-(2-hydroxy-3,5-dichlorobenzylidiene)amino-1,3-pyrimidine salt | 1 µg/mL | 0.125 µg/mL | 1 µg/mL | 0.250 µg/mL | 0.125 µg/mL | 2 µg/mL | 1 µg/mL | 4.0 µg/mL | 8.0 µg/mL | 8.0 µg/mL | 2.0 µg/mL | 8.0 µg/mL | 0.025% | 0.1% | 
2 | Dimer of sodium salt of 2,4-dioxo-5-(2-hydroxy-3,5-dichlorobenzylidiene)amino-1,3-pyrimidine | 1 µg/mL | 0.250 µg/mL | 1 µg/mL | 0.125 µg/mL | 0.125 µg/mL | 2 µg/mL | 1 µg/mL | 2.0 µg/mL | 4.0 µg/mL | 4.0 µg/mL | 1.0 µg/mL | 4.0 µg/mL | 0.025% | 0.1% | 
3 | OC(Cn1cncn1)(Cn1cncn1)c1ccc(F)cc1F [Fluconazole, 2-(2,4-difluorophenyl)-1,3-bis(1N-1,2,4-triazol-1-yl)-2-propanol, reference compound] |  |  |  |  |  |  |  | 32 µg/mL | 64 µg/mL | 64 µg/mL |  |  |  |  | MIC (C. albicans; Candida albicans): 2 µg/mL (≈ 6.53 µM); MIC (C. glabrata; Nakaseomyces glabratus): 64 µg/mL (≈ 209 µM); MIC (C. krusei; Pichia kudriavzevii): 32 µg/mL (≈ 104 µM); MIC (C. parapsilosis; Lodderomyces parapsilosis): 0.25 µg/mL (≈ 0.816 µM); MIC (S. cerevisiae; Saccharomyces cerevisiae): 0.125 µg/mL (≈ 0.408 µM); MIC (Aspergillus): 64 µg/mL (≈ 209 µM); MIC (Mucor): 64 µg/mL (≈ 209 µM); MIC (Aspergillis niger; [3]): 64 µg/mL (≈ 209 µM); MIC [1, 3]: 64 µg/mL (≈ 209 µM); Fungicide effect (presence or absence of growth) ([2]; Candida, same conditions as the inventive substance): did not destroy the microbes; Fungicide effect (presence or absence of growth) (Trichophiton gypseum; trichophyton, same conditions as the inventive substance): did not destroy the microbes
